Assay results as given in patent US20260184687A1, “DIHYDROINDENE DERIVATIVES AS MALT1 INHIBITORS” (C4X Discovery Limited, priority 2022, published 2026).
pIC50: −log10 of the molar value. Counter-ions that a name gives are not always drawn. Like-named read-outs stand apart in the source and are kept apart here.

Columns and labels:
[1] = test system: IL-2 release from stimulated Jurkat cells; assay: Human IL-2 Release Phenotypic Assay (Assay 3); type: cell-based; conditions: Jurkat cells (clone E6-1), 200 ng/mL PMA + 300 ng/mL ionomycin, IL-2 by ELISA
Summary of the method: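 IC50 values were fitted by 4-parameter non-linear regression to IL-2 release from Jurkat E6-1 cells. Those cells were stimulated for 48 h with PMA (200 ng/mL) plus ionomycin (300 ng/mL) after a 30-min compound pre-incubation at half-log doses in 0.5% DMSO. Cells had been plated at 50 000/well overnight at 37° C.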

[2] = target: T1, MALT1-GS-Ub (6-His-hMALT-1 residues 339-715 fused to ubiquitin) (Homo sapiens, UniProt Q9UDY8);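 note: in vitro MALT1 protease assay: enzyme preincubated with compound 30 min at room temperature, then cleavage of fluorogenic Ac-LVSR-AMC substrate (100 µM) followed by fluorescence every 15 min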
Method: (§1) MALT1 protease activity was assessed in vitro by measuring the cleavage of a fluorogenic tetrapeptide substrate.
(§2) A protein (MALT1-GS-Ub) comprising 6-His-hMALT-1 (residues 339-715), fused to ubiquitin with an 8×GGS linker, was expressed in E. coli, and purified using chitin resin to remove contaminants followed by affinity chromatography purification and size-exclusion chromatography, according to standard protocols.
(§3) Briefly, MALT1-GS-Ub (300-600 nM) was incubated with substrate (Ac-LVSR-AMC, 100 μM) in reaction buffer comprising 50 mM HEPES (pH7.0), 25 mM KCl, 0.1% (v/v) CHAPS and 1 mM TCEP.
(§4) Test compounds dissolved in DMSO were dispensed into assay plates (384-well, black, shallow ProxiPlates). 7 μl enzyme solution was added and incubated at room temperature for 30 minutes to allow compound binding to occur. 2 μl substrate solution was then added and the fluorescence (excitation 360 nm, emission 460 nm) read every 15 minutes using a suitable plate reader. Final assay DMSO concentration was 1%. […] IC50 values were calculated using GraphPad Prism using a 4-parameter non-linear regression curve fit.

FL hMALT1 enzyme [3] = target: T2, FL hMALT1 enzyme (Homo sapiens, UniProt Q9UDY8); assay: biochemical;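 note: Cell-free protease assay: enzyme preincubated with compound 30 min at room temperature, then cleavage of fluorogenic Ac-LVSR-AMC substrate (100 µM) tracked by fluorescence (ex 360/em 460 nm)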
T2 sequence (Q9UDY8 1-824): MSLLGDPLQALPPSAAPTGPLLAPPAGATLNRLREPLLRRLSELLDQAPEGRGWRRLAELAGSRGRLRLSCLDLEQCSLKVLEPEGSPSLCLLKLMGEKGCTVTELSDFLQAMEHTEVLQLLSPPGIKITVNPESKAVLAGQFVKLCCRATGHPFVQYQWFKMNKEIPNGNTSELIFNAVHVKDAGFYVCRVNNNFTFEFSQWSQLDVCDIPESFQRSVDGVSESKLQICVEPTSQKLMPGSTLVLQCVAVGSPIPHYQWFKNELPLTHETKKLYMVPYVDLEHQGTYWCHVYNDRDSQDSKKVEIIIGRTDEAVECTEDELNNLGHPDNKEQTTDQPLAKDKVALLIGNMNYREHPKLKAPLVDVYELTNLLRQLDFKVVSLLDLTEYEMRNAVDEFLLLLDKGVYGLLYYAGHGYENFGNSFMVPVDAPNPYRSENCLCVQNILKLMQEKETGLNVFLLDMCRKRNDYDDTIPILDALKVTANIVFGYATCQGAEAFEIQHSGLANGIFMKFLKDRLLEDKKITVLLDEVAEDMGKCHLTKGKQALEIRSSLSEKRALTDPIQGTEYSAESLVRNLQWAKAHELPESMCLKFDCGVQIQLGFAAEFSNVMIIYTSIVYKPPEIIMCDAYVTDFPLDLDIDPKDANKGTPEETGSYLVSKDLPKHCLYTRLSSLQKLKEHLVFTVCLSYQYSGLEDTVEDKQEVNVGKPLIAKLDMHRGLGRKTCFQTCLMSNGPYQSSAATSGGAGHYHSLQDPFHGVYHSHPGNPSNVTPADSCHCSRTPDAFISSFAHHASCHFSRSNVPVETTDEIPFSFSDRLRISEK

FL hMALT1 enzyme [4] = target: T2, FL hMALT1 enzyme
[5] = target: T1, MALT1-GS-Ub (6-His-hMALT-1 residues 339-715 fused to ubiquitin); assay: biochemical
Method: as §1, §2, §3, §4

T1 sequence (Q9UDY8 with tags, fused parts or gaps limits assumed): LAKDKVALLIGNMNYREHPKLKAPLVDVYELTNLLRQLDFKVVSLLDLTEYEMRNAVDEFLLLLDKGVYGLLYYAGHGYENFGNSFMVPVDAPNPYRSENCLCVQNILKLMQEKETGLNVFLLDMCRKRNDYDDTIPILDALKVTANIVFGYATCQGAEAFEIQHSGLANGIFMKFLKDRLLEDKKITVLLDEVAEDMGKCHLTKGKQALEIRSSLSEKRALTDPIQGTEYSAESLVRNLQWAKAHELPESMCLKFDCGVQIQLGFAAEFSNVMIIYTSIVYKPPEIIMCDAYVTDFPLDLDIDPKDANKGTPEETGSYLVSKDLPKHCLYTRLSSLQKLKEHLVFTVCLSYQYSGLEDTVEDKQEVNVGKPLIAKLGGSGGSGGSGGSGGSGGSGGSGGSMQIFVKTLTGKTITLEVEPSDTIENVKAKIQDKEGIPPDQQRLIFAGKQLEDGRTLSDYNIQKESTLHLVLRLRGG

pIC50 ([1]; 48 hours)	pIC50 [2]	pIC50 (FL hMALT1 enzyme [3])	pIC50 (FL hMALT1 enzyme [4])	pIC50 [5]	pIC50 ([1]; Homo sapiens, Jurkat, 48 h)	Compound
6.21	6.85	7.30				CN(C(=O)C1CCS(=O)(=O)CC1)[C@@H](c1ccc(NC2Cc3ccccc3C2(C)C)cc1)C(F)(F)F (single isomer, unassigned) [Example 2]
7.16	6.85	7.47				CN(C(=O)c1cnco1)[C@@H](c1ccc(NC2Cc3ccccc3C2(C)C)cc1)C(F)(F)F (single isomer, unassigned) [Example 4]
7.21	6.80	7.57				CC(=O)NCCC(=O)N(C)[C@@H](c1ccc(NC2Cc3ccccc3C2(C)C)cc1)C(F)(F)F (single isomer, unassigned) [Example 25]
6.30			7.41	6.57		CN(C(=O)C1CCS(=O)(=O)CC1)[C@@H](c1ccc(NC2Cc3ccccc3C2(C)C)nc1)C(F)(F)F (single isomer, unassigned) [Example 37]
6.68	6.62		8.22			CC1c2ccccc2CC1Nc1ccc([C@H](N(C)C(=O)C2CCS(=O)(=O)CC2)C(F)(F)F)cc1 (stereo in doubt) [Example 9, N-Methyl-N—((S)-2,2,2-trifluoro-1-(4-(((1,2-trans)-1-methyl-2,3-dihydro-1H-inden-2-yl)amino)phenyl)ethyl)tetrahydro-2H-thiopyran-4-carboxamide 1,1-dioxide]
< 5.00	5.41		5.92			COC1c2ccccc2CC1Nc1ccc([C@H](N(C)C(=O)C2CCS(=O)(=O)CC2)C(F)(F)F)cc1 (stereo in doubt) [Example 11, N-Methyl-N—((S)-2,2,2-trifluoro-1-(4-(((1,2-trans)-1-methoxy-2,3-dihydro-1H-inden-2-yl)amino)phenyl)ethyl)tetrahydro-2H-thiopyran-4-carboxamide 1,1-dioxide]
		7.80		6.68	6.25	CC1c2ccccc2C(C)C1Nc1ccc([C@H](N(C)C(=O)C2CCS(=O)(=O)CC2)C(F)(F)F)cc1 (stereo partly drawn) [Example 38, N-((1S)-1-(4-((1,3-Dimethyl-2,3-dihydro-1H-inden-2-yl)amino)phenyl)-2,2,2-trifluoroethyl)-N-methyltetrahydro-2H-thiopyran-4-carboxamide 1,1-dioxide]
		7.28		6.68	5.96	CN(C(=O)OC1CNC1)[C@@H](c1ccc(NC2Cc3ccccc3C2(C)C)cc1)C(F)(F)F (stereo partly drawn) [Example 60, Azetidin-3-yl ((1S)-1-(4-((1,1-dimethyl-2,3-dihydro-1H-inden-2-ylamino)phenyl)-2,2,2-trifluoroethyl)(methyl)carbamate Hydrochloride]
		6.66		6.57	6.28	CN(C(=O)C1CNC1)[C@@H](c1ccc(NC2Cc3ccccc3C2(C)C)cc1)C(F)(F)F (stereo partly drawn) [Example 72, N-((1S)-1-(4-((1,1-Dimethyl-2,3-dihydro-1H-inden-2-yl)amino)phenyl)-2,2,2-trifluoroethyl)-N-methylazetidine-3-carboxamide Hydrochloride]
			7.06		6.33	CC(=O)NC12CC(C(=O)N(C)[C@@H](c3ccc(N[C@H]4Cc5ccccc5C4(C)C)cn3)C(F)(F)F)(C1)C2 [Example 179, 3-Acetamido-N—((S)-1-(5-(((S)-1,1-dimethyl-2,3-dihydro-1H-inden-2-yl)amino)pyridin-2-yl)-2,2,2-trifluoroethyl)-N-methylbicyclo[1.1.1]pentane-1-carboxamide]
